A short description of data set [1]: Beagle PK evaluation experiment. To be noted: dog, plasma; for AUC(0-t) / clearance / Vd / half-life / Tmax: dose 1 mg/kg; for clearance: n=3, read-out: Cl_obs iv (clearance rate) (converted); for Vd: n=3, read-out: Vz_obs iv (apparent volume of distribution); for bioavailability: iv/po dose 1/1 mg/kg, n=3, read-out: F % (absolute bioavailability); for Tmax: n=3, median, read-out: Tmax po (time to maximum plasma concentration). The data set is classed as in vivo. On the procedure:
Test samples: the compounds of the present invention, prepared according to exemplary methods.
Administration and Sample Collection:
Experimental compounds 11, 12 and 35 were each dissolved in a mixture of 5% DMSO+20% (30% Solutol)+75% saline to prepare solutions. The compound solutions were administrated via intragastric gavage to beagles at a dose of 1.0 mg/kg, respectively. The blood was collected at time points of 0 min, 15 min, 30 min, 1 h, 2 h, 4 h, 6 h, 8 h, 10 h and 24 h.
Experimental compounds 11, 12 and 35 were each dissolved in a mixture of 5% DMSO+20% (30% Solutol)+75% saline to prepare solutions. The compound solutions were intravenously injected into beagles at a dose of 1.0 mg/kg, respectively. The blood was collected at time points of 0 min, 5 min, 15 min, 30 min, 1 h, 2 h, 4 h, 6 h, 8 h, 10 h and 24 h. […]
Experimental compound 17 and compound 37 were each dissolved in a mixture of 5% DMSO+20% PEG400+75% (20% Captisol in Water) to prepare solutions. The compound solutions were intravenously injected into beagles at a dose of 1.0 mg/kg, respectively. The blood was collected at time points of 0 min, 5 min, 15 min, 30 min, 1 h, 2 h, 4 h, 6 h, 8 h, 10 h and 24 h. […]
Experimental compound 18 was dissolved in a mixture of 5% DMA+30% PEG400+65% (20% Captisol in Saline) to prepare a solution. The compound solution was intravenously injected into a beagle at a dose of 1.0 mg/kg. The blood was collected at time points of 0 min, 5 min, 15 min, 30 min, 1 h, 2 h, 4 h, 6 h, 8 h, 10 h and 24 h.
About 1 mL of blood was collected via the upper extremity, and the collected blood was placed in an anticoagulation tube containing EDTA-K2. The blood samples were centrifuged at 1800 g for 5 min at 4° C. to give plasma samples which were prepared within 30 min after blood collection. The plasma samples were stored in a refrigerator at −80° C. before test.
The samples to be tested were taken out from the refrigerator at −80° C., and vortexed for 5 min after naturally thawed at room temperature. 20 μL of plasma samples were each pipetted into a 1.5 mL centrifuge tube, and 200 μL of internal standard working solution (a solution of tolbutamide in methanol) at 100 ng/mL was added. The resulting mixture was mixed well, vortexed for 5 min, and then centrifuged at 12,000 rpm for 5 min. 50 μL of the supernatant was pipetted into a 96-well plate with 150 μL of water per well, and the plate was vortexed for 5 min and mixed well before LC-MS/MS analysis.
The concentrations of test samples were calculated by Analyst 1.6.3 from AB Sciex. Parameters such as mean, standard deviation and coefficient of variation (excluding those output directly by Analyst 1.6.3) were calculated by Microsoft Excel. PK parameters were calculated by Pharsight Phoenix 6.1 software NCA (Tmax was in median).

Another data set has as its target T1, LCK (h) (Homo sapiens, UniProt P06239).
T1 construct: purchased
The experiment in a line: Enzymatic activity assay, LCK (h) kinase, [γ-33P]-ATP. To be noted: 10 μM [γ-33P]-ATP, 40 min, room temperature; read-out: Inhibitory Activity on LCK (h) kinase, IC50. The data set is classed as biochemical. The method, then: Test samples: the compounds of the present invention, having structures and preparation methods shown above.
Preparation of Compound Stock Solutions:
Compounds were each dissolved in 100% DMSO to prepare stock solutions with a maximum concentration of 500 μM.
Preparation of Compound Working Solutions:
The compound stock solutions were diluted to final concentrations of 500 μM, 150 μM, 50 μM, 15 μM, 5 μM, 1.5 μM, 0.5 μM, 0.15 μM and 0.05 μM to prepare compound working solutions (50×).
Preparation of Different Enzymatic Reaction Solutions:
LCK (h) enzyme was dissolved in a mixture of 50 mM Tris (pH 7.5), 0.1 mM EGTA, 0.1 mM Na3VO4 and 250 μM KVEKIGEGTYGVVYK to prepare an enzyme solution with a final concentration of 45 nM. An Mg/ATP mixture of 10 mM magnesium acetate and 10 μM [γ-^33P]-ATP was used to activate the enzymatic reaction.
The compound working solutions were added to a 384-well plate, with final concentrations of 10000 nM, 3000 nM, 1000 nM, 300 nM, 100 nM, 30 nM, 10 nM, 3 nM and 1 nM, respectively, and then different enzymatic reaction solutions prepared according to the above conditions were added. The reaction solutions were incubated at room temperature for 40 min, and then 0.5% phosphoric acid solutions were added to terminate the reaction. 10 μL of the reaction solution was added dropwise to P30 filter paper which was washed 4 times with a 0.425% phosphoric acid solution and once with methanol and then placed in a scintillation counter for detection. Gray analysis was performed on the results with Image J software, and IC50 values were calculated with GraphPad 5.0 software.

[2] abbreviates: iv, n=3, read-out: AUClast iv (area under concentration-time curve for 0-24 h).
[3] abbreviates: iv, n=3, read-out: tz1/2 iv (terminal half-life) (converted).
Where [4] appears, read: po (gavage), n=3, read-out: AUClast po (area under concentration-time curve for 0-24 h).
The mark [5] stands for this setting: po (gavage), n=3, read-out: tz1/2 po (terminal half-life) (converted).

SMILES strings stand for the structures. Like-named read-outs stand apart in the source and are kept apart here.

T1 sequence (P06239 whole entry): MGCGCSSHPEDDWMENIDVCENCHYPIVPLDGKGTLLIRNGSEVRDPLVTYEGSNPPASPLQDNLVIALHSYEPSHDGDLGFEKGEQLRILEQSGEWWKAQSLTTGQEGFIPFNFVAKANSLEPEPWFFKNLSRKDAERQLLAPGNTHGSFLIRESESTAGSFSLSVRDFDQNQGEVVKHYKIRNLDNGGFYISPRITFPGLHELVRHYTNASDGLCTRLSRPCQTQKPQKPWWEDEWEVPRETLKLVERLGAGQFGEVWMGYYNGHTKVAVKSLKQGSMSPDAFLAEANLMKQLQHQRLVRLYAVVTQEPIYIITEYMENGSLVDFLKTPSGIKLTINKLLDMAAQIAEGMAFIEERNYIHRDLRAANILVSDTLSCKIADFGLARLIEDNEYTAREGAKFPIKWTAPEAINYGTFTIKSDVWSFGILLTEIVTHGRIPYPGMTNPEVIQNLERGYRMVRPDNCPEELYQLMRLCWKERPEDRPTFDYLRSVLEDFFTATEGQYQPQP

For orientation: clearance means a measure of how efficiently the substance is removed, as volume per time. One may read the IC50 as the midpoint of a concentration-inhibition curve. Take `CC(C)n1cc(-c2ccc(F)cc2)c(=O)c(C(=O)Nc2ccc(Oc3ccnc(N)c3Cl)cn2)n1` [Compound 11, N-(5-((2-amino-3-chloropyridin-4-yl)oxy)pyridin-2-yl)-5-(4-fluorophenyl)-1-isopropyl-4-oxo-1,4-dihydropyridazine-3-carboxamide]: the results for the AUC(0-t) in data set [1] (setting [2]) and in data set [1] (setting [4]) were 3320 ng·h/mL and 1360 ng·h/mL, respectively. The clearance in data set [1] (iv) is 4.33 mL/min/kg. In data set [1] (iv), the Vd is 5.36 L/kg. Also, the half-life in data set [1] (setting [3]) was 15 h; in data set [1] (setting [5]) it was 5.97 h. The bioavailability in data set [1] worked out at 37.3%. Moreover, the Tmax in data set [1] (po (gavage)) was 1 h. In addition, the IC50 at LCK (h) worked out at 0.02 µM.

Take `CC(C)n1cc(-c2ccc(F)cc2)c(=O)c(C(=O)Nc2ncc(Oc3ccnc(N)c3Cl)cn2)n1` [Compound 12, N-(5-((2-amino-3-chloropyridin-4-yl)oxy)pyrimidin-2-yl)-5-(4-fluorophenyl)-1-isopropyl-4-oxo-1,4-dihydropyridazine-3-carboxamide]: the AUC(0-t) in data set [1] (setting [2]) was 1530 ng·h/mL; in data set [1] (setting [4]), 1190 ng·h/mL. In addition, the clearance in data set [1] (iv) was 10.8 mL/min/kg. Also, the Vd in data set [1] (iv) came out at 1.04 L/kg. For the same molecule, the half-life is 1.1 h in data set [1] (setting [3]) and 1.24 h in data set [1] (setting [5]). Moreover, in data set [1], the bioavailability was determined as 78%. Also, in data set [1] (po (gavage)), the Tmax is 0.5 h. Further, the IC50 on LCK (h) came out at 0.053 µM.

Turning to `CC(C)n1cc(-c2ccc(F)cc2)c(=O)c(C(=O)Nc2ccc(Oc3ccnc(N)c3Cl)nc2)n1` [Compound 13, N-(6-((2-amino-3-chloropyridin-4-yl)oxy)pyridin-3-yl)-5-(4-fluorophenyl)-1-isopropyl-4-oxo-1,4-dihydropyridazine-3-carboxamide], the IC50 on LCK (h) is 0.132 µM.

Turning to `Nc1nccc(Oc2ccc(NC(=O)c3nn(C4CC4)cc(-c4ccc(F)cc4)c3=O)nc2)c1Cl` [Compound 17, N-(5-((2-amino-3-chloropyridin-4-yl)oxy)pyridin-2-yl)-1-cyclopropyl-5-(4-fluorophenyl)-4-oxo-1,4-dihydropyridazine-3-carboxamide], the results for the AUC(0-t) in data set [1] (setting [2]) and in data set [1] (setting [4]) were 3360 ng·h/mL and 3670 ng·h/mL, respectively. Besides, the clearance in data set [1] (iv) is 5 mL/min/kg. Besides, in data set [1] (iv), the Vd was found to be 3.16 L/kg. Also, the values for the half-life in data set [1] (setting [3]) and in data set [1] (setting [5]) were 7.46 h and 13.6 h, respectively. Also, the bioavailability in data set [1] was 109%. For the same molecule, in data set [1] (po (gavage)), the Tmax stood at 1 h. Also, at LCK (h), the 50% inhibitory concentration (IC50) came out at 0.024 µM.

For `Nc1nccc(Oc2cnc(NC(=O)c3nn(C4CC4)cc(-c4ccc(F)cc4)c3=O)nc2)c1Cl` [Compound 18, N-(5-((2-amino-3-chloropyridin-4-yl)oxy)pyrimidin-2-yl)-5-(4-fluorophenyl)-1-cyclopropyl-4-oxo-1,4-dihydropyridazine-3-carboxamide], the AUC(0-t) in data set [1] (setting [2]) was found to be 3730 ng·h/mL; in data set [1] (setting [4]), 1090 ng·h/mL. For the same molecule, the clearance in data set [1] (iv) is 4.83 mL/min/kg. Further, in data set [1] (iv), the Vd came to 0.65 L/kg. In addition, the half-life is 1.54 h in data set [1] (setting [3]) and 2 h in data set [1] (setting [5]). Also, in data set [1], the bioavailability was found to be 29.7%. Moreover, in data set [1] (po (gavage)), the Tmax was found to be 1 h.

Regarding `Nc1nccc(Oc2ccc(NC(=O)c3nn(C4CC4)cc(-c4ccc(F)cc4)c3=O)cn2)c1Cl` [Compound 19, N-(6-((2-amino-3-chloropyridin-4-yl)oxy)pyridin-3-yl)-1-cyclopropyl-5-(4-fluorophenyl)-4-oxo-1,4-dihydropyridazine-3-carboxamide], the IC50 on LCK (h) was determined as 0.104 µM.

Take `Cn1cc(-c2ccc(F)cc2)c(=O)c(C(=O)Nc2ccc(Oc3ccnc(N)c3Cl)cn2)n1` [Compound 33, N-(5-((2-amino-3-chloropyridin-4-yl)oxy)pyridin-2-yl)-5-(4-fluorophenyl)-1-methyl-4-oxo-1,4-dihydropyridazine-3-carboxamide]: at LCK (h), the IC50 came to 0.026 µM.

In the case of `C=CCn1cc(-c2ccc(F)cc2)c(=O)c(C(=O)Nc2ccc(Oc3ccnc(N)c3Cl)cn2)n1` [Compound 35, 1-allyl-N-(5-((2-amino-3-chloropyridin-4-yl)oxy)pyridin-2-yl)-5-(4-fluorophenyl)-4-oxo-1,4-dihydropyridazine-3-carboxamide], the AUC(0-t) in data set [1] (setting [2]) came to 4120 ng·h/mL; in data set [1] (setting [4]), 2200 ng·h/mL. Also, in data set [1] (iv), the clearance was 3.83 mL/min/kg. The Vd in data set [1] (iv) was 3.16 L/kg. Also, the figures for the half-life in data set [1] (setting [3]) and in data set [1] (setting [5]) were 9.32 h and 4.01 h, respectively. Besides, in data set [1], the bioavailability was found to be 50.7%. Further, the Tmax in data set [1] (po (gavage)) came to 1 h. Besides, at LCK (h), the IC50 was 0.02 µM.

Take `C=CCn1cc(-c2ccc(F)cc2)c(=O)c(C(=O)Nc2ncc(Oc3ccnc(N)c3Cl)cn2)n1` [Compound 37]: the values for the AUC(0-t) in data set [1] (setting [2]) and in data set [1] (setting [4]) were 2600 ng·h/mL and 1830 ng·h/mL, respectively. Further, the clearance in data set [1] (iv) was 6.83 mL/min/kg. The Vd in data set [1] (iv) was found to be 1.07 L/kg. The values for the half-life in data set [1] (setting [3]) and in data set [1] (setting [5]) were 1.79 h and 1.88 h, respectively. Moreover, the bioavailability in data set [1] came to 70.6%. Besides, in data set [1] (po (gavage)), the Tmax came out at 0.5 h.

`C=CCn1cc(-c2ccc(F)cc2)c(=O)c(C(=O)Nc2ccc(Oc3ccnc(N)c3Cl)nc2)n1` [Compound 39, 1-allyl-N-(6-((2-amino-3-chloropyridin-4-yl)oxy)pyridin-3-yl)-5-(4-fluorophenyl)-4-oxo-1,4-dihydropyridazine-3-carboxamide]: the IC50 at LCK (h) came out at 0.095 µM.

These data come from patent publication US20220298146A1, “HETEROCYCLIC DERIVATIVE AND USE THEREOF” (Transthera Sciences (Nanjing), Inc., priority 2019, published 2022).
